Assay results: paper PMC8523698, “Preclinical characterization of an intravenous coronavirus 3CL protease inhibitor for the potential treatment of COVID19” (Nature Communications, 2021)
Where “and” joins values, the source holds several entries; their conditions need not be identical. Equal entries are not always repeated. Where two headings read alike, the source gives them in different places.

Key:
[1] = target: T1, CYP2C8 (Homo sapiens, UniProt P10632); assay: Reversible CYP inhibition in human liver microsomes; conditions: for activity at 0.1 µM / activity at 0.214 µM / activity at 0.979 µM / activity at 2.09 µM / activity at 4.48 µM / activity at 20.5 µM / activity at 43.8 µM / activity at 93.5 µM / activity at 200 µM: pH 7.4, Percent of Control Activity
T1 sequence (P10632 1-490): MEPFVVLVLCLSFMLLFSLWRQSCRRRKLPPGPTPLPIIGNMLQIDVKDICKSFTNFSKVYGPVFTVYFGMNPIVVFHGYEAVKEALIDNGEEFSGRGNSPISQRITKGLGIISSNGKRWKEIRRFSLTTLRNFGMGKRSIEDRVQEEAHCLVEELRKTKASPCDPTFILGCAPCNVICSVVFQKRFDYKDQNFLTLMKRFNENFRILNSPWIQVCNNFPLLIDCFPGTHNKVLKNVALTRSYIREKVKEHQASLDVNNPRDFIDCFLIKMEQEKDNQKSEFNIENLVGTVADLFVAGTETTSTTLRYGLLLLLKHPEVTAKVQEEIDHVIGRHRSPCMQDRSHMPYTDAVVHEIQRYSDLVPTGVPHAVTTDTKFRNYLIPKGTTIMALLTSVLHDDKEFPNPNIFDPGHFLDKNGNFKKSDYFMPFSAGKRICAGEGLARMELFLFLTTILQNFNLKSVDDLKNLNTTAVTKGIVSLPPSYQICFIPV

[2] = Plasma protein binding by equilibrium dialysis; conditions: for fraction unbound at 6 h, 5 uM / fraction unbound at 6 h: human, plasma
[3] = target: MDR1/P-gp (Homo sapiens, UniProt P08183); assay: Transporter inhibition using membrane vesicles; conditions: for % PGP Uptake Activity: uptake of N-methyl quinidine by MDR1, single replicates
Sequence of MDR1/P-gp (P08183 whole entry): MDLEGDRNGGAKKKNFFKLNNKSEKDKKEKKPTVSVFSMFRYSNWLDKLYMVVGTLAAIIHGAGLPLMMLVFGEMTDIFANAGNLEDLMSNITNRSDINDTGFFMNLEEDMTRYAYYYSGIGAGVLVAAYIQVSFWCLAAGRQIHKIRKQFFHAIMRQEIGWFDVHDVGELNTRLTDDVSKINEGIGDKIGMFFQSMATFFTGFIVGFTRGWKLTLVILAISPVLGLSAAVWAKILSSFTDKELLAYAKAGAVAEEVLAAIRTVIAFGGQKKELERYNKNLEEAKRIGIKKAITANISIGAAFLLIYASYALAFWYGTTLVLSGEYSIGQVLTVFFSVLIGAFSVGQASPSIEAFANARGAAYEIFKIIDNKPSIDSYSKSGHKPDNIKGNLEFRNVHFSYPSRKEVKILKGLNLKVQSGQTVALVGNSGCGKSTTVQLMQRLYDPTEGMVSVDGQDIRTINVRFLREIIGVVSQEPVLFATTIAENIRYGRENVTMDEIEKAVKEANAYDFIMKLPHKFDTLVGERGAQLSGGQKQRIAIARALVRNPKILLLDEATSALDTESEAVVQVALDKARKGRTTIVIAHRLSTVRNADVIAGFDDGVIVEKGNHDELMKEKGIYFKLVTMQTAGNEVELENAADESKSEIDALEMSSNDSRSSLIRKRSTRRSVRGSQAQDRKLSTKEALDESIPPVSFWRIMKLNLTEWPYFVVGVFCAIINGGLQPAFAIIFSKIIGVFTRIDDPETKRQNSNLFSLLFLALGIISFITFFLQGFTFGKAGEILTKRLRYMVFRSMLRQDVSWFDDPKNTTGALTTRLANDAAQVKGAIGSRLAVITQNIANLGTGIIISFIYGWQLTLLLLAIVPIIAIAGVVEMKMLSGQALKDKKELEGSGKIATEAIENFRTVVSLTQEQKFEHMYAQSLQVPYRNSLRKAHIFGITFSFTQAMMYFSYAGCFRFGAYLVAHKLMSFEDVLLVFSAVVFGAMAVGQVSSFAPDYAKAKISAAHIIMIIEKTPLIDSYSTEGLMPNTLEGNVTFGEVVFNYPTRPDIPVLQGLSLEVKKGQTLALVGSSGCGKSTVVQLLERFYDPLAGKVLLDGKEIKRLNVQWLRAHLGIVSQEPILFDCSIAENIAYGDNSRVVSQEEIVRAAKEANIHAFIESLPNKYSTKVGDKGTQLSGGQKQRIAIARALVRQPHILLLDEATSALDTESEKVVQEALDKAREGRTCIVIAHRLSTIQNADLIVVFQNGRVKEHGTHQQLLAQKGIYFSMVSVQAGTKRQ

[4] = Plasma protein binding by equilibrium dialysis; conditions: for fraction unbound at 6 h, 5 uM / fraction unbound at 6 h: rat, plasma
[5] = target: T2, OCT2 (Homo sapiens, UniProt O15244); assay: Transporter inhibition using transfected HEK293 cells
T2 sequence (O15244 1-555): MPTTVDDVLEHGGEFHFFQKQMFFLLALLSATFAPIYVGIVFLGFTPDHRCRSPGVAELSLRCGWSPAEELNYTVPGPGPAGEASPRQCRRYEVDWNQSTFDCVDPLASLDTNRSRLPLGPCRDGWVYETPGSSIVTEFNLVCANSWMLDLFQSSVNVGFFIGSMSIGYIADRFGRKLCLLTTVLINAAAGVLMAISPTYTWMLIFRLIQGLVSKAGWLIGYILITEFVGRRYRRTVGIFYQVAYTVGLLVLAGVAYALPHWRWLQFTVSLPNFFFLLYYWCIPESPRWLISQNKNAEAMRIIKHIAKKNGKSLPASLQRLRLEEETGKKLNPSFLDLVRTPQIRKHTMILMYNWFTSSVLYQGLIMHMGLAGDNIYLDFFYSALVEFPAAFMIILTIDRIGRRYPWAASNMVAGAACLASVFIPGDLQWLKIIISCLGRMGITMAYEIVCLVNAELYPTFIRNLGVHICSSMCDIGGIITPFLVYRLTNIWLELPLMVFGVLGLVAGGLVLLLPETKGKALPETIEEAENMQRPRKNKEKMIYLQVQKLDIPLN

COc1cccc2[nH]c(C(=O)N[C@@H](CC(C)C)C(=O)N[C@@H](C[C@@H]3CCNC3=O)C(=O)CO)cc12 [PF-00835231]
Percent of Control Activity ([1]; CYP 2C8, 0.1 µM, 30-Minute Preincubation, 0.1 µM): 98.0% and 103.9% | Percent of Control Activity ([1]; CYP 2C8, 0.1 µM, Zero-Minute Preincubation, 0.1 µM): 104.8% and 112.8% | Percent of Control Activity ([1]; CYP 2C8, 0.214 µM, 30-Minute Preincubation, 0.214 µM): 93.1% and 90.6% | Percent of Control Activity ([1]; CYP 2C8, 0.214 µM, Zero-Minute Preincubation, 0.214 µM): 107.5% and 109.2% | Percent of Control Activity ([1]; CYP 2C8, 0.979 µM, 30-Minute Preincubation, 0.979 µM): 105.7% and 92.9% | Percent of Control Activity ([1]; CYP 2C8, 2.09 µM, 30-Minute Preincubation, 2.09 µM): 93.9% and 94.5% | Percent of Control Activity ([1]; CYP 2C8, 2.09 µM, Zero-Minute Preincubation, 2.09 µM): 100.1% and 105.9% | Percent of Control Activity ([1]; CYP 2C8, 4.48 µM, 30-Minute Preincubation, 4.48 µM): 91.6% and 90.7% | Percent of Control Activity ([1]; CYP 2C8, 4.48 µM, Zero-Minute Preincubation, 4.48 µM): 107.2% and 107.1% | Percent of Control Activity ([1]; CYP 2C8, 20.5 µM, 30-Minute Preincubation, 20.5 µM): 94.2% and 94.7% | Percent of Control Activity ([1]; CYP 2C8, 20.5 µM, Zero-Minute Preincubation, 20.5 µM): 95.8% and 108.3% | Percent of Control Activity ([1]; CYP 2C8, 43.8 µM, 30-Minute Preincubation, 43.8 µM): 90.3% | Percent of Control Activity ([1]; CYP 2C8, 43.8 µM, Zero-Minute Preincubation, 43.8 µM): 96.9% and 95.4% | Percent of Control Activity ([1]; CYP 2C8, 93.5 µM, 30-Minute Preincubation, 93.5 µM): 68.7% and 77.7% | Percent of Control Activity ([1]; CYP 2C8, 93.5 µM, Zero-Minute Preincubation, 93.5 µM): 87.1% and 95.1% | Percent of Control Activity ([1]; CYP 2C8, 200 µM, 30-Minute Preincubation, 200 µM): 65.4% and 64.5% | Percent of Control Activity ([1]; CYP 2C8, 200 µM, Zero-Minute Preincubation, 200 µM): 78.5% and 82.2% | IC50 ([1]; human, microsomes, pH 7.4): > 200 µM | activity at 0.1 µM ([1]; human, microsomes, CYP 2C8, 0.1 µM, 30-Minute Preincubation): 97.4% | activity at 0.1 µM ([1]; human, microsomes, CYP 2C8, 0.1 µM, Zero-Minute Preincubation): 99.7% | activity at 0.214 µM ([1]; human, microsomes, CYP 2C8, 0.214 µM, 30-Minute Preincubation): 91% | activity at 0.214 µM ([1]; human, microsomes, CYP 2C8, 0.214 µM, Zero-Minute Preincubation): 103% | activity at 0.979 µM ([1]; human, microsomes, CYP 2C8, 0.979 µM, 30-Minute Preincubation): 98.3% | activity at 0.979 µM ([1]; human, microsomes, CYP 2C8, 0.979 µM, Zero-Minute Preincubation): 108% | activity at 2.09 µM ([1]; human, microsomes, CYP 2C8, 2.09 µM, 30-Minute Preincubation): 92.8% | activity at 2.09 µM ([1]; human, microsomes, CYP 2C8, 2.09 µM, Zero-Minute Preincubation): 110% | activity at 4.48 µM ([1]; human, microsomes, CYP 2C8, 4.48 µM, 30-Minute Preincubation): 85.8% | activity at 4.48 µM ([1]; human, microsomes, CYP 2C8, 4.48 µM, Zero-Minute Preincubation): 104% | activity at 20.5 µM ([1]; human, microsomes, CYP 2C8, 20.5 µM, 30-Minute Preincubation): 86% | activity at 20.5 µM ([1]; human, microsomes, CYP 2C8, 20.5 µM, Zero-Minute Preincubation): 93.6% | activity at 43.8 µM ([1]; human, microsomes, CYP 2C8, 43.8 µM, 30-Minute Preincubation): 82.6% | activity at 43.8 µM ([1]; human, microsomes, CYP 2C8, 43.8 µM, Zero-Minute Preincubation): 91.9% | activity at 93.5 µM ([1]; human, microsomes, CYP 2C8, 93.5 µM, 30-Minute Preincubation): 76.7% | activity at 93.5 µM ([1]; human, microsomes, CYP 2C8, 93.5 µM, Zero-Minute Preincubation): 91.2% | activity at 200 µM ([1]; human, microsomes, CYP 2C8, 200 µM, 30-Minute Preincubation): 62.8% | activity at 200 µM ([1]; human, microsomes, CYP 2C8, 200 µM, Zero-Minute Preincubation): 79.6% | Individual fraction unbound ([2]; human plasma, 5.0 uM, replicates Day 1-3): 0.474 and 0.429 and 0.385 and 0.458 and 0.463 and 0.507 and 0.437 and 0.428 and 0.477 and 0.486 | fraction unbound at 6 h, 5 uM ([2]; pH 7.4, Fraction unbound, Geomean, human plasma, 5.0 uM, n 12): 0.449 | fraction unbound at 6 h, 5 uM ([2]; pH 7.4, Individual fraction unbound, human plasma, 5.0 uM, replicates Day 1-3): 0.423 | fraction unbound at 6 h ([2]; pH 7.4, Measured plasma fu / Human plasma fu, human plasma): 0.449 | fraction unbound at 6 h ([2]; pH 7.4, Unbound fraction fu (%CV), human plasma): 0.449 | fraction unbound at 6 h, 5 uM ([2]; pH 7.4, fraction unbound Geomean, human plasma, 5.0 uM, n=12): 0.449 | fraction unbound at 6 h ([2]; pH 7.4, fu, fu,plasma, Simcyp input parameter (User), substrate): 0.449 | IC50 ([3]; IC50, N-methyl quinidine (0.2 µM)): 65.6 µM | IC50 at […] ([3]; human, human MDR1 (P-gp) membrane vesicles, pH 7.4, probe N-methyl quinidine (0.2 µM), IC50, N-methyl quinidine (0.2 µM)): > 20 µM | % PGP Uptake Activity ([3]; inhibitor concentration 0.0732 uM): 93.3145% and 114.451% and 106.12% | % PGP Uptake Activity ([3]; inhibitor concentration 0.2930 uM): 78.5035% and 118.154% and 104.268% | % PGP Uptake Activity ([3]; inhibitor concentration 1.1719 uM): 118.617% and 114.451% | % PGP Uptake Activity ([3]; inhibitor concentration 4.6875 uM): 113.525% and 107.354% and 108.897% | % PGP Uptake Activity ([3]; inhibitor concentration 18.7500 uM): 94.703% and 96.0915% and 89.1489% | % PGP Uptake Activity ([3]; inhibitor concentration 300.0000 uM): 17.0995% and 14.0139% and 11.9619% | Individual fraction unbound ([4]; Rat Wistar han plasma, 5.0 uM, replicates Day 1-3): 0.368 and 0.323 and 0.339 and 0.35 and 0.268 and 0.363 and 0.364 and 0.263 and 0.326 and 0.358 and 0.285 | fraction unbound at 6 h, 5 uM ([4]; Wistar Han, pH 7.4, Fraction unbound, Geomean, Rat plasma, 5.0 uM, n 12): 0.327 | fraction unbound at 6 h, 5 uM ([4]; Wistar Han, pH 7.4, Individual fraction unbound, Rat Wistar han plasma, 5.0 uM, replicates Day 1-3): 0.343 | fraction unbound at 6 h ([4]; Wistar Hannover, pH 7.4, Plasma fu, Vdss input): 0.327 | fraction unbound at 6 h ([4]; Wistar Hannover, pH 7.4, Unbound fraction fu (%CV), rat plasma (PF-07304814 Sprague-Dawley, PF-00835231 Wistar Hannover)): 0.327 | fraction unbound at 6 h, 5 uM ([4]; Wistar Hannover, pH 7.4, fraction unbound Geomean, rat plasma, 5.0 uM, n=12): 0.327 | IC50 [5]: > 300 µM | IC50 ([5]; human, HEK293 cells stably transfected with OCT2, pH 7.4, probe [14C]-metformin (20 µM)): > 20 µM
